Assay results reported in PubChem BioAssay (NCI).
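Interpolation was linear, between the two tested concentrations surrounding the appropriate level; five concentrations were tested over 48 hours in 96-well plates. TGI marks complete inhibition of growth.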

Assays:
Experiment in all cases: inhibition of tumour cell growth, NCI panel, 48 h
786-0 renal = tested on: 786-0 renal
A498 renal = tested on: A498 renal
A549 NSCLC = tested on: A549 NSCLC
ACHN renal = tested on: ACHN renal
CCRF-CEM leukemia = tested on: CCRF-CEM leukemia
COLO 205 colon = tested on: COLO 205 colon
DLD-1 colon = tested on: DLD-1 colon
DMS 114 small cell lung = tested on: DMS 114 small cell lung
DMS 273 small cell lung = tested on: DMS 273 small cell lung
EKVX NSCLC = tested on: EKVX NSCLC
HCC-2998 colon = tested on: HCC-2998 colon
HCT-116 colon = tested on: HCT-116 colon
HCT-15 colon = tested on: HCT-15 colon
HOP-18 NSCLC = tested on: HOP-18 NSCLC
HOP-62 NSCLC = tested on: HOP-62 NSCLC
HOP-92 NSCLC = tested on: HOP-92 NSCLC
HT29 colon = tested on: HT29 colon
IGROV1 ovarian = tested on: IGROV1 ovarian
K-562 leukemia = tested on: K-562 leukemia
KM12 colon = tested on: KM12 colon
KM20L2 colon = tested on: KM20L2 colon
LOX IMVI melanoma = tested on: LOX IMVI melanoma
LXFL 529 NSCLC = tested on: LXFL 529 NSCLC
M14 melanoma = tested on: M14 melanoma
M19-MEL melanoma = tested on: M19-MEL melanoma
MALME-3M melanoma = tested on: MALME-3M melanoma
MOLT-4 leukemia = tested on: MOLT-4 leukemia
NCI-H226 lung = tested on: NCI-H226 lung
NCI-H23 lung = tested on: NCI-H23 lung
NCI-H460 lung = tested on: NCI-H460 lung
NCI-H522 lung = tested on: NCI-H522 lung
OVCAR-3 ovarian = tested on: OVCAR-3 ovarian
OVCAR-4 ovarian = tested on: OVCAR-4 ovarian
OVCAR-5 ovarian = tested on: OVCAR-5 ovarian
OVCAR-8 ovarian = tested on: OVCAR-8 ovarian
RXF 393 renal = tested on: RXF 393 renal
RXF-631 renal = tested on: RXF-631 renal
SF-268 CNS = tested on: SF-268 CNS
SF-295 CNS = tested on: SF-295 CNS
SF-539 CNS = tested on: SF-539 CNS
SK-MEL-2 melanoma = tested on: SK-MEL-2 melanoma
SK-MEL-28 melanoma = tested on: SK-MEL-28 melanoma
SK-MEL-5 melanoma = tested on: SK-MEL-5 melanoma
SK-OV-3 ovarian = tested on: SK-OV-3 ovarian
SN12C renal = tested on: SN12C renal
SNB-19 CNS = tested on: SNB-19 CNS
SNB-75 CNS = tested on: SNB-75 CNS
SNB-78 CNS = tested on: SNB-78 CNS
SW-620 colon = tested on: SW-620 colon
TK-10 renal = tested on: TK-10 renal
U251 CNS = tested on: U251 CNS
UACC-257 melanoma = tested on: UACC-257 melanoma
UACC-62 melanoma = tested on: UACC-62 melanoma
UO-31 renal = tested on: UO-31 renal
XF 498 CNS = tested on: XF 498 CNS
CAKI-1 renal = tested on: CAKI-1 renal
HL-60(TB) leukemia = tested on: HL-60(TB) leukemia
SR leukemia = tested on: SR leukemia
RPMI-8226 leukemia = tested on: RPMI-8226 leukemia

Measured: TGI

C/C(=N/NC(=O)c1ccccc1O)c1ccc(/C(C)=N\NC(=O)c2ccccc2O)c2nc3cc(C)c(C)cc3nc12
not listed: CAKI-1 renal | HL-60(TB) leukemia | SR leukemia | RPMI-8226 leukemia
> 100 µM: all other assays above

CCOC(=O)c1sc2c(sc(=O)n2-c2ccccc2)c1O
not listed: SW-620 colon | RPMI-8226 leukemia
> 100 µM: all other assays above

Cc1ccc(NC(=O)CC(=O)n2nc(-c3ccccc3)c(N=Nc3ccccc3[N+](=O)[O-])c2-c2ccccc2)cc1
not listed: A498 renal | HCT-15 colon | NCI-H226 lung
> 100 µM: all other assays above
